From PubChem BioAssay AID1963965 (Molecular Pharmacology Branch, DTP, NCI, 2024)

Tested on: 996289-038-R-J1-PDC spheroid viability
Assay: Anticancer human tumor 996289-038-R-J1-PDC patient-derived colon adenocarcinoma cell line growth inhibition [PI3K]
Conditions: spheroids with HUVEC and MSC; for IC50: curve of first compound; for viability, T/C: stronger effect = lower value
Procedure, shortened: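 High-throughput combination screen: PI3K inhibitors crossed with targeted small molecules on complex spheroids of tumor cells, HUVEC and MSCs at 37 degrees C, 5% CO2. Top concentration was at or near clinical Cmax (otherwise 10 microM), with half-log decrements.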

[1] = second compound 0.0316 µM, first compound 0.0316 µM
[2] = second compound 0.0316 µM, first compound 0.1 µM
[3] = second compound 0.0316 µM, first compound 0.316 µM
[4] = second compound 0.0316 µM, first compound 1 µM
[5] = second compound 0.1 µM, first compound 0.0316 µM
[6] = second compound 0.1 µM, first compound 0.1 µM
[7] = second compound 0.1 µM, first compound 0.316 µM
[8] = second compound 0.1 µM, first compound 1 µM
[9] = second compound 0.316 µM, first compound 0.0316 µM
[10] = second compound 0.316 µM, first compound 0.1 µM
[11] = second compound 0.316 µM, first compound 0.316 µM
[12] = second compound 0.316 µM, first compound 1 µM
[13] = second compound 1 µM, first compound 0.0316 µM
[14] = second compound 1 µM, first compound 0.1 µM
[15] = second compound 1 µM, first compound 0.316 µM
[16] = second compound 1 µM, first compound 1 µM
[17] = second compound 3.16 µM, first compound 0.0316 µM
[18] = second compound 3.16 µM, first compound 0.1 µM
[19] = second compound 3.16 µM, first compound 0.316 µM
[20] = second compound 3.16 µM, first compound 1 µM
[21] = second compound 10 µM, first compound 0.0316 µM
[22] = second compound 10 µM, first compound 0.1 µM
[23] = second compound 10 µM, first compound 0.316 µM
[24] = second compound 10 µM, first compound 1 µM
[25] = second compound 0.0316 µM, first compound 0.00316 µM
[26] = second compound 0.0316 µM, first compound 0.01 µM
[27] = second compound 0.1 µM, first compound 0.00316 µM
[28] = second compound 0.1 µM, first compound 0.01 µM
[29] = second compound 0.316 µM, first compound 0.00316 µM
[30] = second compound 0.316 µM, first compound 0.01 µM
[31] = second compound 1 µM, first compound 0.00316 µM
[32] = second compound 1 µM, first compound 0.01 µM
[33] = second compound 3.16 µM, first compound 0.00316 µM
[34] = second compound 3.16 µM, first compound 0.01 µM
[35] = second compound 10 µM, first compound 0.00316 µM
[36] = second compound 10 µM, first compound 0.01 µM
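Further: spheroids exposed to compounds for seven days before viability read.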
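Wherever viability, T/C is given: luminescence used as a proxy for viable cell amount; percent viability relative to DMSO vehicle control as 100%.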

Cn1ncc(Cl)c1-c1cc(C(=O)NC(CN)Cc2cccc(F)c2)sc1Cl (stereo unspecified) + Cc1nc(NC(=O)N2CCCC2C(N)=O)sc1-c1ccnc(C(C)(C)C(F)(F)F)c1
IC50 (second compound 0.0316 µM): 9.68 µM | IC50 (second compound 0.1 µM): 4.61 µM | IC50 (second compound 0.316 µM): 2.74 µM | IC50 (second compound 1 µM): 1.39 µM | IC50 (second compound 3.16 µM): 0.659 µM | IC50 (second compound 10 µM): < 0.0316 µM | viability, T/C [1]: 76.9% | viability, T/C [2]: 91.2% | viability, T/C [3]: 78.2% | viability, T/C [4]: 63.9% | viability, T/C (second compound 0.0316 µM, first compound 3.16 µM): 60% | viability, T/C (second compound 0.0316 µM, first compound 10 µM): 47.6% | viability, T/C [5]: 89.2% | viability, T/C [6]: 80.3% | viability, T/C [7]: 78.5% | viability, T/C [8]: 56% | viability, T/C (second compound 0.1 µM, first compound 3.16 µM): 55.9% | viability, T/C (second compound 0.1 µM, first compound 10 µM): 45.1% | viability, T/C [9]: 75.2% | viability, T/C [10]: 87.5% | viability, T/C [11]: 67.1% | viability, T/C [12]: 58% | viability, T/C (second compound 0.316 µM, first compound 3.16 µM): 51.9% | viability, T/C (second compound 0.316 µM, first compound 10 µM): 31.5% | viability, T/C [13]: 82.4% | viability, T/C [14]: 71.8% | viability, T/C [15]: 63.4% | viability, T/C [16]: 53.9% | viability, T/C (second compound 1 µM, first compound 3.16 µM): 42.4% | viability, T/C (second compound 1 µM, first compound 10 µM): 31.7% | viability, T/C [17]: 61% | viability, T/C [18]: 63.6% | viability, T/C [19]: 59.2% | viability, T/C [20]: 43.4% | viability, T/C (second compound 3.16 µM, first compound 3.16 µM): 34.5% | viability, T/C (second compound 3.16 µM, first compound 10 µM): 24.9% | viability, T/C [21]: 34.8% | viability, T/C [22]: 36.4% | viability, T/C [23]: 41.6% | viability, T/C [24]: 35.5% | viability, T/C (second compound 10 µM, first compound 3.16 µM): 27.3% | viability, T/C (second compound 10 µM, first compound 10 µM): 16.2%

CC(C)n1nc(-c2ccc3oc(N)nc3c2)c2c(N)ncnc21 + CC(Nc1ncnc2nc[nH]c12)c1cc2cccc(Cl)c2c(=O)n1-c1ccccc1
IC50 (second compound 0.0316 µM): 0.0801 µM | IC50 (second compound 0.1 µM): 0.062 µM | IC50 (second compound 0.316 µM): 0.0649 µM | IC50 (second compound 1 µM): 0.058 µM | IC50 (second compound 3.16 µM): 0.0717 µM | IC50 (second compound 10 µM): 0.0629 µM | viability, T/C (second compound 0.0316 µM, first compound 0.000316 µM): 107% | viability, T/C (second compound 0.0316 µM, first compound 0.001 µM): 88.6% | viability, T/C [25]: 97.6% | viability, T/C [26]: 86.7% | viability, T/C [1]: 82.7% | viability, T/C [2]: 42.3% | viability, T/C (second compound 0.1 µM, first compound 0.000316 µM): 124% | viability, T/C (second compound 0.1 µM, first compound 0.001 µM): 96.5% | viability, T/C [27]: 96.1% | viability, T/C [28]: 95.8% | viability, T/C [5]: 70.8% | viability, T/C [6]: 34.5% | viability, T/C (second compound 0.316 µM, first compound 0.000316 µM): 105% | viability, T/C (second compound 0.316 µM, first compound 0.001 µM): 87.4% | viability, T/C [29]: 84.6% | viability, T/C [30]: 87.3% | viability, T/C [9]: 73.9% | viability, T/C [10]: 36.2% | viability, T/C (second compound 1 µM, first compound 0.000316 µM): 98.4% | viability, T/C (second compound 1 µM, first compound 0.001 µM): 97.9% | viability, T/C [31]: 85.9% | viability, T/C [32]: 84.6% | viability, T/C [13]: 65.7% | viability, T/C [14]: 35.9% | viability, T/C (second compound 3.16 µM, first compound 0.000316 µM): 87.5% | viability, T/C (second compound 3.16 µM, first compound 0.001 µM): 87.5% | viability, T/C [33]: 86.2% | viability, T/C [34]: 89.5% | viability, T/C [17]: 76.8% | viability, T/C [18]: 38.9% | viability, T/C (second compound 10 µM, first compound 0.000316 µM): 85% | viability, T/C (second compound 10 µM, first compound 0.001 µM): 82% | viability, T/C [35]: 82.9% | viability, T/C [36]: 79% | viability, T/C [21]: 68.8% | viability, T/C [22]: 37.2%

CCN1CCN(Cc2ccc(Nc3ncc(F)c(-c4cc(F)c5nc(C)n(C(C)C)c5c4)n3)nc2)CC1 + Cc1nc(NC(=O)N2CCCC2C(N)=O)sc1-c1ccnc(C(C)(C)C(F)(F)F)c1
IC50 (second compound 0.0316 µM): > 1 µM | IC50 (second compound 0.1 µM): > 1 µM | IC50 (second compound 0.316 µM): > 1 µM | IC50 (second compound 1 µM): > 1 µM | IC50 (second compound 3.16 µM): 0.0376 µM | IC50 (second compound 10 µM): < 0.00316 µM | viability, T/C [25]: 84.2% | viability, T/C [26]: 72% | viability, T/C [1]: 83.4% | viability, T/C [2]: 78.7% | viability, T/C [3]: 72.7% | viability, T/C [4]: 79.7% | viability, T/C [27]: 89.8% | viability, T/C [28]: 83% | viability, T/C [5]: 79.7% | viability, T/C [6]: 75.4% | viability, T/C [7]: 75.2% | viability, T/C [8]: 67.3% | viability, T/C [29]: 85.9% | viability, T/C [30]: 74.4% | viability, T/C [9]: 70.7% | viability, T/C [10]: 63% | viability, T/C [11]: 63.1% | viability, T/C [12]: 59.2% | viability, T/C [31]: 75.8% | viability, T/C [32]: 74.2% | viability, T/C [13]: 56.7% | viability, T/C [14]: 54.8% | viability, T/C [15]: 58.4% | viability, T/C [16]: 50.9% | viability, T/C [33]: 51.4% | viability, T/C [34]: 56.2% | viability, T/C [17]: 51.4% | viability, T/C [18]: 46.1% | viability, T/C [19]: 43.7% | viability, T/C [20]: 44.2% | viability, T/C [35]: 37.5% | viability, T/C [36]: 40% | viability, T/C [21]: 33.9% | viability, T/C [22]: 33.6% | viability, T/C [23]: 29.6% | viability, T/C [24]: 27.9%
